In this test the test system is P388 leukemia ip, CD2F1 mice, survival T/C. In words: NCI In Vivo Anticancer Drug Screen. Data for tumor model P388 Leukemia (intraperitoneal) in CD2F1 (CDF1) mice. The following applies: endpoint: median survival time, higher = longer survival. The essentials: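 Mice carrying the transplanted tumor received test compound or vehicle. Survival was recorded in each group, and the value is the treated-group measurement divided by that of the vehicle-treated control group.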

Setting [1] is: dose: 50.0 mg/kg/injection, schedule: Q01DX005 (ip), vehicle: saline.
Where [2] appears, read: dose: 100.0 mg/kg/injection, schedule: Q01DX005 (ip), vehicle: saline.
Where [3] appears, read: dose: 200.0 mg/kg/injection, schedule: Q01DX005 (ip), vehicle: saline.
The mark [4] stands for this setting: dose: 6.25 mg/kg/injection, schedule: Q01DX009 (ip), vehicle: saline with Tween-80.
[5] abbreviates: dose: 12.5 mg/kg/injection, schedule: Q01DX009 (ip), vehicle: saline with Tween-80.
The mark [6] stands for this setting: dose: 25.0 mg/kg/injection, schedule: Q01DX009 (ip), vehicle: saline with Tween-80.
Where [7] appears, read: dose: 50.0 mg/kg/injection, schedule: Q01DX009 (ip), vehicle: saline with Tween-80.
Where [8] appears, read: dose: 100.0 mg/kg/injection, schedule: Q01DX009 (ip), vehicle: saline with Tween-80.
[9] abbreviates: dose: 200.0 mg/kg/injection, schedule: Q01DX009 (ip), vehicle: saline with Tween-80.
Setting [10] is: dose: 60.0 mg/kg/injection, schedule: Q01DX005 (ip), vehicle: saline.
Setting [11] is: dose: 120.0 mg/kg/injection, schedule: Q01DX005 (ip), vehicle: saline.
The mark [12] stands for this setting: dose: 240.0 mg/kg/injection, schedule: Q01DX005 (ip), vehicle: saline.
The mark [13] stands for this setting: dose: 60.0 mg/kg/injection, schedule: Q01DX005 (ip), vehicle: Klucel (hydroxypropylcellulose) (HPC).
Where [14] appears, read: dose: 120.0 mg/kg/injection, schedule: Q01DX005 (ip), vehicle: Klucel (hydroxypropylcellulose) (HPC).
Setting [15] is: dose: 50.0 mg/kg/injection, schedule: Q01DX009 (ip), vehicle: other.
Where [16] appears, read: dose: 100.0 mg/kg/injection, schedule: Q01DX009 (ip), vehicle: other.
Where [17] appears, read: dose: 200.0 mg/kg/injection, schedule: Q01DX009 (ip), vehicle: other.

Among the data in PubChem BioAssay AID330 (DTP/NCI, 2004) are T/C values, retold here.

Structures are written as SMILES. Several values for one entry are separate records, joined by “and”; a condition that tells them apart may be missing. Identical values can stand only once. Toxic doses and inconclusive results are not listed.

Consider `OCCOCCSc1ccccn1`, for which the T/C is 109 % of control under setting [1], 111 % of control under setting [2] and 111 % of control under setting [3].
As to `O=C1C(=O)c2ccccc2-c2ccccc21`, the T/C under setting [4] is 104 % of control, the T/C under setting [5] was 104 % of control, the T/C under setting [6] was 108 % of control and the T/C under setting [7] is 100 % of control.
As for `CCOC(=O)N1C(=O)C2C3CCC(C2C1=O)C1C2C(=O)N(C(=O)OCC)C(=O)C2C31` (stereo not drawn), the T/C runs as follows: under setting [5], 103 % of control; under setting [6], 104 % of control and 111 % of control; under setting [7], 115 % of control; under setting [8], 157 % of control; under setting [9], 222 % of control.
With `CC(CO)CCC1OC2CC3C4CC=C5CC(O)CCC5(C)C4CCC3(C)C2C1C` (stereo not drawn), the T/C is 98 % of control (dose: 2.25 mg/kg/injection, schedule: Q01DX005 (ip), vehicle: Klucel (hydroxypropylcellulose) (HPC)); 100 % of control (dose: 4.5 mg/kg/injection, schedule: Q01DX005 (ip), vehicle: Klucel (hydroxypropylcellulose) (HPC)); 88 % of control (dose: 9.0 mg/kg/injection, schedule: Q01DX005 (ip), vehicle: Klucel (hydroxypropylcellulose) (HPC)); 87 % of control (dose: 36.0 mg/kg/injection, schedule: Q01DX005 (ip), vehicle: Klucel (hydroxypropylcellulose) (HPC)).
Consider `O=c1c2ccccc2nc2ccc(Cl)nn12`, for which the T/C runs as follows: under setting [7], 95 % of control; under setting [8], 100 % of control.
Take `CN1C2C=C(c3ccc(Cl)cc3)CC1CC2` (stereo not drawn): the T/C runs as follows: (dose: 6.25 mg/kg/injection, schedule: Q01DX005 (ip), vehicle: Klucel (hydroxypropylcellulose) (HPC)) 106 % of control; (dose: 6.25 mg/kg/injection, schedule: Q01DX005 (ip), vehicle: saline) 103 % of control; (dose: 12.5 mg/kg/injection, schedule: Q01DX005 (ip), vehicle: Klucel (hydroxypropylcellulose) (HPC)) 100 % of control; (dose: 12.5 mg/kg/injection, schedule: Q01DX005 (ip), vehicle: saline) 114 % of control; (dose: 25.0 mg/kg/injection, schedule: Q01DX005 (ip), vehicle: Klucel (hydroxypropylcellulose) (HPC)) 109 % of control; (dose: 25.0 mg/kg/injection, schedule: Q01DX005 (ip), vehicle: saline) 100 % of control.
In the case of `COc1ccn(CC2(C)CO2)c(=O)n1` (stereo not drawn), the T/C reads like this: under setting [10], 103 % of control; under setting [11], 106 % of control; under setting [12], 104 % of control.
Regarding `CCCCOCN(COCCCC)C(C)Cc1ccccc1` (stereo not drawn), under setting [6], the T/C was 120 % of control.
`COc1ccc(N=NS(=O)(=O)O)cn1`: the T/C by setting is: (dose: 3.12 mg/kg/injection, schedule: Q01DX009 (ip), vehicle: saline with Tween-80) 93 % of control; under setting [4], 101 % of control; under setting [5], 108 % of control; under setting [6], 97 % of control; under setting [7], 99 % of control and 97 % of control; under setting [8], 94 % of control. The T/C was 106 % of control under setting [9] and 101 % of control (dose: 400.0 mg/kg/injection, schedule: Q01DX009 (ip), vehicle: saline with Tween-80).
As for `O=C(Nc1cccc(C(F)(F)F)c1)c1cc(Br)cc(Br)c1O`, the T/C (dose: 6.25 mg/kg/injection, schedule: Q01DX009 (ip), vehicle: Klucel (hydroxypropylcellulose) (HPC)) is 95 % of control; the T/C (dose: 12.5 mg/kg/injection, schedule: Q01DX009 (ip), vehicle: Klucel (hydroxypropylcellulose) (HPC)) is 100 % of control; the T/C (dose: 25.0 mg/kg/injection, schedule: Q01DX009 (ip), vehicle: Klucel (hydroxypropylcellulose) (HPC)) is 91 % of control.
As for `ClC1CCCCC1C(C1CCCCC1)C1CCCCC1` (stereo not drawn), the T/C by setting is: (dose: 50.0 mg/kg/injection, schedule: Q01DX005 (ip), vehicle: saline with Tween-80) 98 % of control; (dose: 100.0 mg/kg/injection, schedule: Q01DX005 (ip), vehicle: saline with Tween-80) 100 % of control.
In the case of `Nc1ncnc2c1ncn2Cc1cccnc1`, the T/C (dose: 50.0 mg/kg/injection, schedule: Q01DX005 (ip), vehicle: Klucel (hydroxypropylcellulose) (HPC)) is 98 % of control; the T/C (dose: 100.0 mg/kg/injection, schedule: Q01DX005 (ip), vehicle: Klucel (hydroxypropylcellulose) (HPC)) was 98 % of control; the T/C (dose: 200.0 mg/kg/injection, schedule: Q01DX005 (ip), vehicle: Klucel (hydroxypropylcellulose) (HPC)) was 100 % of control.
On to `COc1cc(C(Nc2ccccn2)c2cc3c(cc2O)OCO3)cc(OC)c1O` (stereo not drawn), for which the T/C was 91 % of control under setting [13]; 91 % of control under setting [14]; 94 % of control (dose: 240.0 mg/kg/injection, schedule: Q01DX005 (ip), vehicle: Klucel (hydroxypropylcellulose) (HPC)).
As for `CCCCCCC[CH2][Sn](=[O])[CH2]CCCCCCC`, the T/C (dose: 12.5 mg/kg/injection, schedule: Q01DX009 (ip), vehicle: saline) is 100 % of control; the T/C (dose: 25.0 mg/kg/injection, schedule: Q01DX009 (ip), vehicle: saline) was 116 % of control; the T/C under setting [7] was 101 % of control; the T/C (dose: 50.0 mg/kg/injection, schedule: Q01DX009 (ip), vehicle: saline) was 100 % of control.
On to `O=C(O)c1ccc2c(c1)C(=O)c1c(O)ccc(O)c1C2=O`, for which the T/C reads like this: under setting [7], 92 % of control; under setting [8], 103 % of control; under setting [9], 103 % of control.
In the case of `O=C(Nc1ccccc1)c1nn(-c2cc(S(=O)(=O)[O-])ccc2Cl)[n+](-c2ccccc2Cl)n1`, the T/C runs as follows: under setting [13], 101 % of control; under setting [14], 101 % of control.
On to `COc1ccc(-n2c(SC)nccc2=O)cc1`, for which the T/C (dose: 100.0 mg/kg/injection, schedule: Q04DX003 (ip), vehicle: Klucel (hydroxypropylcellulose) (HPC)) was 100 % of control and the T/C (dose: 200.0 mg/kg/injection, schedule: Q04DX003 (ip), vehicle: Klucel (hydroxypropylcellulose) (HPC)) is 99 % of control.
In the case of `COc1ccc(C(Nc2ccccn2)c2cc(C(C)(C)C)cc(C(C)(C)C)c2O)cc1` (stereo not drawn), the T/C reads like this: (dose: 50.0 mg/kg/injection, schedule: Q01DX005 (ip), vehicle: distilled water + alcohol) 105 % of control; (dose: 100.0 mg/kg/injection, schedule: Q01DX005 (ip), vehicle: distilled water + alcohol) 100 % of control; (dose: 200.0 mg/kg/injection, schedule: Q01DX005 (ip), vehicle: distilled water + alcohol) 109 % of control.
As to `CCOC(=O)C1Nc2ccc(Br)cc2C(C(=O)OCC)N1c1ccc(Br)cc1` (stereo not drawn), the T/C (dose: 50.0 mg/kg/injection, schedule: Q01DX009 (ip), vehicle: Klucel (hydroxypropylcellulose) (HPC)) was 102 % of control; the T/C (dose: 100.0 mg/kg/injection, schedule: Q01DX009 (ip), vehicle: Klucel (hydroxypropylcellulose) (HPC)) was 102 % of control; the T/C (dose: 200.0 mg/kg/injection, schedule: Q01DX009 (ip), vehicle: Klucel (hydroxypropylcellulose) (HPC)) is 94 % of control.
Regarding `O=S1(=O)CCC2CCCCC2C1` (stereo not drawn), the T/C runs as follows: under setting [4], 109 % of control; under setting [5], 100 % of control.
As to `N#CC(C(=O)C(=O)Nc1ccc(Cl)c(Cl)c1)c1ccccc1` (stereo not drawn), the T/C is, setting by setting: (dose: 60.0 mg/kg/injection, schedule: Q01DX005 (ip), vehicle: saline with Tween-80) 100 % of control; (dose: 120.0 mg/kg/injection, schedule: Q01DX005 (ip), vehicle: saline with Tween-80) 99 % of control.
On to `COc1cccnc1/C=N/NC(N)=S`, for which the T/C (dose: 3.13 mg/kg/injection, schedule: Q01DX009 (ip), vehicle: saline with Tween-80) was 124 % of control.
Take `CCOC1(C)OC2OC(COC(c3ccccc3)(c3ccccc3)c3ccccc3)C(O)C(O)C2O1` (stereo not drawn): the T/C by setting is: (dose: 12.5 mg/kg/injection, schedule: Q01DX009 (ip), vehicle: other) 97 % of control; (dose: 25.0 mg/kg/injection, schedule: Q01DX009 (ip), vehicle: other) 97 % of control; under setting [15], 95 % of control; under setting [16], 98 % of control; under setting [17], 98 % of control.
`COc1ccc2c(c1)C1(C)c3cc(OC)ccc3OC1(C)O2` (stereo not drawn): the T/C runs as follows: under setting [15], 103 % of control; under setting [16], 95 % of control; under setting [17], 103 % of control.
In the case of `CC1C(=O)CC2CCC1N2C(=O)O` (stereo not drawn), the T/C is 96 % of control under setting [1], 96 % of control under setting [2] and 94 % of control under setting [3].
In the case of `Nc1nnc(-c2cccc(-c3nnc(N)o3)c2)o1`, the T/C under setting [10] is 98 % of control, the T/C under setting [11] was 99 % of control and the T/C under setting [12] is 102 % of control.
